Values quoted from earlier work in patent US9968629B2, “Product and method for supporting uridine homeostasis” (N.V. Nutricia, priority 2012, dated 2018).

In the case of `O=c1ccn([C@@H]2O[C@H](CO)[C@@H](O)[C@H]2O)c(=O)[nH]1` [uridine], the “time after which all administered uridine has been used or is catabolised” value (FIG. 3 in WO 2007/089703, plasma uridine levels) is listed as 6 to 8 h, the toxic side effects (high doses of uridine) is listed as “phlebitis, pyrogenic reactions and diarrhea” and the “half time in the plasma” value (plasma) is listed as 3 to 4 h.
